Publication PMC7699381, “Rare-Earth Metal Complexes of the Antibacterial Drug Oxolinic Acid: Synthesis, Characterization, DNA/Protein Binding and Cytotoxicity Studies” (Molecules, 2020)
Where two headings read alike, the source gives them in different places.

Legend:
[1] = tested on: MDA-MB 231 (human breast adenocarcinoma); assay: MTS cytotoxicity assay, MDA-MB 231 cells; format: cell-based
Protocol: (§1) For the evaluation of the cytotoxic effects of the complexes and ligand two human cancer cell lines were used, namely MDA-MB 231 (human breast adenocarcinoma) and LoVo (human colon adenocarcinoma); a normal cell line, human umbilical vein endothelial cells (HUVEC), was used as a reference. […] After 24 h and 48 h, respectively, cell viability was evaluated through MTS assay (data shown in Figures S16–S18) and the IC50 values were calculated (Table 5). The cytotoxicity assay is based on the ability of metabolically active cells to reduce MTS, a yellow tetrazolium salt, to the colored formazan, soluble in the culture medium; the concentration of formazan can be spectrophotometrically determined. […] PES is a cationic dye with high chemical stability that binds to MTS and forms a stable solution. […] The reduced MTS to formazan was spectrophotometrically measured at λ = 492 nm. The test was run on two cancer cell lines, LoVo and MDA-MB 231, and on a normal cell line, HUVEC. […] Cell viability data were obtained in triplicate (n = 3) and expressed as mean values ± standard deviations (SD). […] All assays were performed in 96-well microtiter plates with flat bottom (Falcon), using CellTiter 96 Aqueous One Solution Cell Proliferation Assay (Promega), an MTS-based colorimetric assay. The formazan was spectrophotometrically measured using the Tecan GENios Spectrophotometer.

[2] = tested on: LoVo (human colon adenocarcinoma); assay: MTS cytotoxicity assay, LoVo cells; format: cell-based; conditions: 48 h of incubation
Protocol: as §1

[3] = tested on: HUVEC (normal human umbilical vein endothelial cells); assay: MTS cytotoxicity assay, HUVEC normal cells; format: cell-based; conditions: 48 h of incubation
Protocol: as §1

[4] = tested on: CT-DNA (double-stranded calf-thymus DNA); assay: DNA binding by UV-Vis spectra (titration with CT-DNA); conditions: 20 µM compound, 0–40 µM DNA, Tris-HCl pH 7.4, room temperature
EB-DNA system (CT-DNA) = assay: Competitive binding assay with ethidium bromide (EB) through fluorescence spectroscopy; design: species or system calf; conditions: 10 µM CT-DNA, 2 µM EB; for Ksv (Stern-Volmer quenching constant, EB-DNA system): 0–40 µM compound, λex 500 nm; for K50 (EB Displacement Assay): concentration corresponding to 50% binding
Text: The manner of binding to the DNA macromolecule can be investigated through competitive binding studies with ethidium bromide (3,8-diamino-5-ethyl-6-phenylphenanthridinium bromide), a fluorescent dye; due to its aromatic ring, it can intercalate between two adjacent base pairs in the DNA structure and form a complex which emits fluorescent light; displacing EB results in a quenching effect. The Stern-Volmer constant (KSV) and the dissociation constant (K50) have been calculated from the resulting data.
Competitive binding studies were carried out on a Jasco FP 6500 fluorometer at room temperature, using quartz cells of 1 cm path-length. The fluorescence spectra were recorded on 1.6 mL samples containing 10 µM CT-DNA and 2 µM EB in the absence and presence of increasing amounts (0–40 µM with an increment of 5 µM) of complexes and free ligands, respectively, after being kept in contact for 10 min at room temperature, under continuous stirring and in the dark. The excitation wavelength used was 500 nm and the spectra was recorded in the 520–800 nm range. Two control samples were used, the first one containing DMSO, DNA and EB and the second one just the complex.
Data from the assay can be interpreted using the classical Stern-Volmer equation (Equation (3)):(3) F0/F=1+ KSV·[Q] where F0 and F are the fluorescence intensities of the EB-DNA samples in the absence and presence of the tested compounds and [Q] is the concentration of the compound; KSV is the Stern-Volmer constant and can be calculated from the plot of F0/F vs. [Q] as the slope.
The ratio of binding relative to the control sample exposed only to DMSO was plotted against the logarithm of concentration. The data points were fitted using the modified Hill function with offset (Origin®) (Equation (4)):(4) y=A1+(A2−A1)×x^n/K50^n+x^n where y is the ratio of binding (F/F0) and x is the concentration, A1 is the minimum of y values, A2 is the maximum of y values, K50 is the concentration corresponding to 50% binding and n is the Hill coefficient.

Apo-transferrin (apo-Tf) = molecular target: T1, Apo-transferrin (apo-Tf) (Homo sapiens, UniProt P02787); assay: Fluorescence quenching of apo-transferrin; format: binding; conditions: for quenching effect on apo-Tf fluorescence peak / Ksv (Stern-Volmer constant), apo-Tf: 1 µM apo-Tf; for quenching effect on apo-Tf fluorescence peak: compound up to 8 µM, λex 295 nm; for Ka (association binding constant), apo-Tf / n (Hill Coefficient), apo-Tf / n (Number of Binding Sites), apo-Tf / Ksv (Stern-Volmer constant), apo-Tf / Kq (bimolecular quenching constant), apo-Tf / fa (fraction of fluorophore accessible to the quencher), apo-Tf / Kd: 298 K; for Ksv (Stern-Volmer constant), apo-Tf: 0–8 µM compound, pH 7.4; for Kq (bimolecular quenching constant), apo-Tf: from KSV = Kq τ0; for fa (fraction of fluorophore accessible to the quencher), apo-Tf: modified Stern-Volmer
T1 construct: purchased Sigma Aldrich Chemical Co. (Schnelldorf, Germany)

[5] = molecular target: T2, Human serum albumin (HSA) (Homo sapiens, UniProt P02768)
[6] = molecular target: T2, Human serum albumin (HSA); assay: Fluorescence quenching of human serum albumin; conditions: for quenching effect on HSA fluorescence peak / Ksv (Stern-Volmer constant), HSA: 2.5 µM HSA; for quenching effect on HSA fluorescence peak: compound up to 8 µM, λex 280 nm; for Ka (association binding constant), HSA / n (Hill Coefficient), HSA / n (Number of Binding Sites), HSA / Ksv (Stern-Volmer constant), HSA / Kq (bimolecular quenching constant), HSA / fa (fraction of fluorophore accessible to the quencher), HSA / Kd: 298 K; for Ksv (Stern-Volmer constant), HSA: 0–8 µM compound, pH 7.4; for Kq (bimolecular quenching constant), HSA: from KSV = Kq τ0; for fa (fraction of fluorophore accessible to the quencher), HSA: modified Stern-Volmer; for Kd: HSA
[7] = Homo sapiens, MDA-MB-231, 48 h of incubation

T2 sequence (P02768 25-609): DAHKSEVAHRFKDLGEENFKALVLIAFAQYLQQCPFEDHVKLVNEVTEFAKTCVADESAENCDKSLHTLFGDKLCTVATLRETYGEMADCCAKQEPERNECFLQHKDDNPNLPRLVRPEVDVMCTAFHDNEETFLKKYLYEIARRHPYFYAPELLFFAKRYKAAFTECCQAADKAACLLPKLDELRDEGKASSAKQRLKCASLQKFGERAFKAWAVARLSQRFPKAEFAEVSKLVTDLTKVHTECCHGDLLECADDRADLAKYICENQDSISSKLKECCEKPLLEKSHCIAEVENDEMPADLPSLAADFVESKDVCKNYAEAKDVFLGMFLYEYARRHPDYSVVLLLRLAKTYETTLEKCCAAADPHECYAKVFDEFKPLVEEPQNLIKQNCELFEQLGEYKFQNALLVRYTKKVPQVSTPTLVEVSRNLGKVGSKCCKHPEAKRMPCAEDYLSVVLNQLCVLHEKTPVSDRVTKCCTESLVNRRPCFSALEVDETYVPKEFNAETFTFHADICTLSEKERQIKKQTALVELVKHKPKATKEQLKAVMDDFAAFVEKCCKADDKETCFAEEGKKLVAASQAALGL
T1 sequence (P02787 20-698): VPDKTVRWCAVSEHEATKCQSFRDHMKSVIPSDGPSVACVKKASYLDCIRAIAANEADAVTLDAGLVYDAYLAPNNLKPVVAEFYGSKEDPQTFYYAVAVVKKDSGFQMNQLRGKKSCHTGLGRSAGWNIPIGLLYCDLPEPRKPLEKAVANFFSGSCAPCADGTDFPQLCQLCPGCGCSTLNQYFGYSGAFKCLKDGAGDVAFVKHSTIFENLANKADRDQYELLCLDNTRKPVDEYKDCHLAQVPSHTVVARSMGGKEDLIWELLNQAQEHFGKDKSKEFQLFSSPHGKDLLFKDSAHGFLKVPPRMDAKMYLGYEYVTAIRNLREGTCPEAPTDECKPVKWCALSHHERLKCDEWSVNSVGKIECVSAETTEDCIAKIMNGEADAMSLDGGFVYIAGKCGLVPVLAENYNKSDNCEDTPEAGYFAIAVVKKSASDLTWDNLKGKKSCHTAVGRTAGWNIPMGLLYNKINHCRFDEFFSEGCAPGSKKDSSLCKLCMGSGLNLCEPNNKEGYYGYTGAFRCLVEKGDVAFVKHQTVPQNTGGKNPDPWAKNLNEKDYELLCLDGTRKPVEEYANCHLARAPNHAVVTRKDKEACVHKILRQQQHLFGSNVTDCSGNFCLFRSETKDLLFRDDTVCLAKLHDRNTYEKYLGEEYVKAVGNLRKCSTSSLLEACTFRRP

Compound | IC50 [2] [µM] | IC50 [3] [µM] | IC50 ([1]; 48 h of incubation) [µM] | Ksv (Stern-Volmer quenching constant, EB-DNA system) (EB-DNA system (CT-DNA)) | K50 (EB Displacement Assay) (EB-DNA system (CT-DNA)) [µM] | quenching effect on apo-Tf fluorescence peak (Apo-transferrin (apo-Tf)) [%] | Ka (association binding constant), apo-Tf (Apo-transferrin (apo-Tf)) | n (Hill Coefficient), apo-Tf (Apo-transferrin (apo-Tf)) | n (Number of Binding Sites), apo-Tf (Apo-transferrin (apo-Tf)) | Ksv (Stern-Volmer constant), apo-Tf (Apo-transferrin (apo-Tf)) | Kq (bimolecular quenching constant), apo-Tf (Apo-transferrin (apo-Tf)) [M⁻¹ s⁻¹] | fa (fraction of fluorophore accessible to the quencher), apo-Tf (Apo-transferrin (apo-Tf)) | Kd (Apo-transferrin (apo-Tf); read-out: Kd, apo-Tf) [µM] | Kd [5] [µM] | Ka (association binding constant), HSA [6] | n (Hill Coefficient), HSA [6] | n (Number of Binding Sites), HSA [6] | Ksv (Stern-Volmer constant), HSA [6] | Kq (bimolecular quenching constant), HSA [6] [M⁻¹ s⁻¹] | fa (fraction of fluorophore accessible to the quencher), HSA [6] | also measured
COc1cccc2c1C(=O)c1c(O)c3c(c(O)c1C2=O)C[C@@](O)(C(=O)CO)C[C@@H]3O[C@H]1C[C@H](N)[C@H](O)[C@H](C)O1 [ADR, adriamycin, reference compound] |  |  |  |  |  |  |  |  |  |  |  |  |  |  |  |  |  |  |  |  | IC50 [1, 7]: 7.85 ± 0.7 µM
N.N.[Cl][Pt][Cl] [Cis-Pt, Cisplatin, reference compound] | 40.1 ± 13.9 | 28.5 ± 6.28 |  |  |  |  |  |  |  |  |  |  |  |  |  |  |  |  |  |  | 
CCn1cc(C(=O)[O][Eu]([OH])[O]C(=O)c2cn(CC)c3cc4c(cc3c2=O)OCO4)c(=O)c2cc3c(cc21)OCO3.O [Eu oxo, [Eu(oxo)(OH)(H2O)]] | 107 ± 16 | > 200 | 73.7 ± 19.8 | (1.26 ± 0.02) × 10^4 | 40.15 ± 11.82 | 50 | (2.74 ± 0.41) × 10^4 M^−1 | 0.95 ± 0.21 | 0.88 ± 0.01 | (16.55 ± 0.94) × 10^4 M^−1 | 1.655e+13 | 0.81 ± 0.02 | 8.27 ± 4.17 | 5.56 ± 0.86 | (4.75 ± 0.80) × 10^5 M^−1 | 1.33 ± 0.18 | 1.11 ± 0.01 | 11.25 (± 0.92) × 10^4 M^−1 | 1.125e+13 | 0.94 ± 0.04 | Kb (DNA binding constant) [4]: 10.72 (± 2.47) × 10^5 L∙mol^−1; quenching effect on HSA fluorescence peak [6]: ~ 58%; Ksv (Stern-Volmer constant), HSA ([6]; listed as Eu-oxo): (11.25 ± 0.92) × 10^4 M^−1
CCn1cc(C(=O)[O][Y]([OH])[O]C(=O)c2cn(CC)c3cc4c(cc3c2=O)OCO4)c(=O)c2cc3c(cc21)OCO3.O [Y oxo, [Y(oxo)(OH)(H2O)]] | 90.4 ± 9.3 | > 200 | 33.2 ± 14.9 | 8.38 (±0.29) × 10^3 | 28.07 ± 4.44 | 35 | 4.40(±1.09) × 10^4 M^−1 | 1.58 ± 0.23 | 0.94 ± 0.01 | 6.52 (± 0.56) × 10^4 M^−1 | 6.52e+12 | 1.15 ± 0.07 | 8.34 ± 1.71 | 6.3 ± 2.47 | (2.04 ± 0.74) × 10^5 M^−1 | 1.52 ± 0.47 | 1.44 ± 0.03 | (10.53 ± 0.95) × 10^4 M^−1 | 1.053e+13 | 1.07 ± 0.05 | Ksv (Stern-Volmer quenching constant, EB-DNA system) (EB-DNA system (CT-DNA); listed as Y-oxo): (8.38 ± 0.29) × 10^3; Ksv (Stern-Volmer constant), apo-Tf (Apo-transferrin (apo-Tf); listed as Y-oxo): (6.52 ± 0.56) × 10^4 M^−1; Ka (association binding constant), apo-Tf (Apo-transferrin (apo-Tf); listed as Y-oxo): (4.40 ± 1.09) × 10^4 M^−1
CCn1cc(C(=O)O)c(=O)c2cc3c(cc21)OCO3 [oxo, 5-ethyl-5,8-dihydro-8-oxo-l,3 dioxolo[4,5-g]quinoline-7-carboxylic acid, reference compound] |  |  |  | (1.05 ± 0.02) × 10^4 | 42.07 ± 18.48 |  |  | 1.89 ± 1.35 | 0.67 ± 0.00 | (17.45 ± 0.95) × 10^4 M^−1 | 1.745e+13 | 0.36±0.01 |  |  |  | 1.62 ± 0.39 | 0.90 ± 0.01 | (1.95 ± 0.38) × 10^4 M^−1 | 1.95e+12 | 1.92 ± 0.35 | IC50 ([2]; Homo sapiens, LoVo): > 200 µM; IC50 [1, 7]: 43.5 ± 4.94 µM; IC50 ([3]; Homo sapiens, HUVEC): > 200 µM; Kd (Apo-transferrin (apo-Tf); Kd, apo-Tf): 8.11 ± 7.34 µM; Ksv (Stern-Volmer constant), HSA ([6]; listed as oxolinic acid): 1.95 (± 0.38) × 10^4 M^−1; Kd ([6]; Ka (association binding constant)): 92.6 µM; Kd ([6]; Kd): 7.26 ± 2.66 µM
[Gd(oxo)(OH)(H2O)]·0.5H2O [Gd oxo] | 56.5 ± 3.83 | > 200 | 73.8 ± 18.5 | (1.18 ± 0.01) × 10^4 | 47.75 ± 25.22 |  | (0.58 ± 0.25) × 10^4 M^−1 | 1.24 ± 0.45 | 0.76 ± 0.03 | (17.51 ± 1.06) × 10^4 M^−1 | 1.751e+13 | 0.73 ± 0.02 | 8.8 ± 6.57 | 5.32 ± 0.69 | (1.98 ± 0.82) × 10^5 M^−1 | 1.81 ± 0.26 | 1.06 ± 0.03 | (5.77 ± 0.84) × 10^4 M^−1 | 5.77e+12 | 1.39 ± 0.15 | quenching effect on HSA fluorescence peak [6]: ~ 47%
[Tb(oxo)(OH)(H2O)] · 0.5 H2O [Tb oxo] | 40.6 ± 7.43 | > 200 | > 200 | (1.18 ± 0.00) × 10^4 | 20.28 ± 1.15 | 47.62 | (1.28 ± 0.17) × 10^4 M^−1 | 1.57 ± 0.33 | 0.81 ± 0.01 | 19.45 (± 1.10) × 10^4 M^−1 | 1.945e+13 | 0.77 ± 0.01 | 5.57 ± 1.22 | 5.97 ± 0.89 | 6.83(±1.33) × 10^5 M^−1 | 1.58 ± 0.20 | 1.18 ± 0.01 | (2.84 ± 0.70) × 10^4 M^−1 | 2.84e+12 | 2.13 ± 0.45 | Ksv (Stern-Volmer constant), apo-Tf (Apo-transferrin (apo-Tf); listed as Tb-oxo): (19.45 ± 1.10) × 10^4 M^−1; quenching effect on HSA fluorescence peak [6]: 52.63%; Ka (association binding constant), HSA ([6]; listed as Tb-oxo): (6.83 ± 1.33) × 10^5 M^−1
